Test results reported in patent US20220177508A1, “C10-Cyclic Substituted 13-Membered Macrolides and Uses Thereof” (Zikani Therapeutics, Inc., priority 2018, published 2022).
Converted amounts (≈) assume the structure as drawn.

Key:
Format in all cases: cell-based
[1] = system: A. baumannii MP-15; experiment: Broth dilution MIC determination (CLSI), A. baumannii MP-15; conditions: Acinetobacter baumannii, MP15; strain MP-15, broth dilution; read-out: MIC A. baumanii MP-15
[2] = system: K. pneumoniae MP-546; experiment: Broth dilution MIC determination (CLSI), K. pneumoniae MP-546; conditions: Klebsiella pneumoniae, MP546; strain MP-546, broth dilution
[3] = system: S. aureus MP-12; experiment: Broth dilution MIC determination (CLSI), S. aureus MP-12; conditions: Staphylococcus aureus, MP12; strain MP-12, broth dilution
[4] = system: E. coli MP-4; experiment: Broth dilution MIC determination (CLSI), E. coli MP-4; conditions: Escherichia coli, MP4; strain MP-4, broth dilution; read-out: MIC E. coli MP-4
[5] = system: P. aeruginosa MP-3; experiment: Broth dilution MIC determination (CLSI), P. aeruginosa MP-3; conditions: Pseudomonas aeruginosa, MP3; strain MP-3, broth dilution

| Compound | MIC [1] [µg/mL] | MIC [2] [µg/mL] | MIC [3] [µg/mL] | MIC [4] [µg/mL] | MIC [5] [µg/mL] |
| --- | --- | --- | --- | --- | --- |
| CCCN1C2CCC1CC([C@@H]1COC(=O)C(C)(C)C(=O)[C@H](C)[C@@H](O[C@@H]3O[C@H](C)C[C@H](N(C)C)[C@H]3O)[C@](C)(OC)C[C@@H](C)CN1C)C2 (stereo partly drawn) [Compound 79, (3R,6R,8R,9R,10R)-9-(((2S,3R,4S,6R)-4-(dimethylamino)-3-hydroxy-6-methyltetrahydro-2H-pyran-2-yl)oxy)-8-methoxy-4,6,8,10,12,12-hexamethyl-3-(8-propyl-8-azabicyclo[3.2.1]octan-3-yl)-1-oxa-4-azacyclotridecane-11,13-dione] | > 32 | 4 to 32 (≈ 6.14 to 49.1 µM) | < 4 | < 4 | > 32 |
| CO[C@]1(C)C[C@@H](C)CN(C)[C@H](C2CCNCC2)COC(=O)C(C)(C)C(=O)[C@H](C)[C@H]1O[C@@H]1O[C@H](C)C[C@H](N(C)C)[C@H]1O [Compound 80, (3R,6R,8R,9R,10R)-9-(((2S,3R,4S,6R)-4-(dimethylamino)-3-hydroxy-6-methyltetrahydro-2H-pyran-2-yl)oxy)-8-methoxy-4,6,8,10,12,12-hexamethyl-3-(piperidin-4-yl)-1-oxa-4-azacyclotridecane-11,13-dione] | > 32 | 4 to 32 (≈ 6.85 to 54.8 µM) | 4 to 32 (≈ 6.85 to 54.8 µM) | < 4 | > 32 |
| CO[C@]1(C)C[C@@H](C)CN(C)[C@@H](C2CN(CC(C)C)C2)COC(=O)C(C)(C)C(=O)[C@H](C)[C@H]1O[C@@H]1O[C@H](C)C[C@H](N(C)C)[C@H]1O [Compound 81, (3S,6R,8R,9R,10R)-9-(((2S,3R,4S,6R)-4-(dimethylamino)-3-hydroxy-6-methyltetrahydro-2H-pyran-2-yl)oxy)-3-(1-isobutylazetidin-3-yl)-8-methoxy-4,6,8,10,12,12-hexamethyl-1-oxa-4-azacyclotridecane-11,13-dione] | > 32 | 4 to 32 (≈ 6.54 to 52.3 µM) | > 32 | < 4 | > 32 |
| CO[C@]1(C)C[C@@H](C)CN(C)[C@@H]([C@H]2CC[C@H](N(C)C(=O)CN(C)C)CC2)COC(=O)C(C)(C)C(=O)[C@H](C)[C@H]1O[C@@H]1O[C@H](C)C[C@H](N(C)C)[C@H]1O [Compound 82, 2-(dimethylamino)-N-((1S,4r)-4-((3S,6R,8R,9R,10R)-9-(((2S,3R,4S,6R)-4-(dimethylamino)-3-hydroxy-6-methyltetrahydro-2H-pyran-2-yl)oxy)-8-methoxy-4,6,8,10,12,12-hexamethyl-11,13-dioxo-1-oxa-4-azacyclotridecan-3-yl)cyclohexyl)-N-methylacetamide] | > 32 | > 32 | > 32 | > 32 | > 32 |
| CO[C@]1(C)C[C@@H](C)CN(C)[C@H](C2CCN(C(=O)CN(C)C)CC2)COC(=O)C(C)(C)C(=O)[C@H](C)[C@H]1O[C@@H]1O[C@H](C)C[C@H](N(C)C)[C@H]1O [Compound 85, (3R,6R,8R,9R,10R)-9-(((2S,3R,4S,6R)-4-(dimethylamino)-3-hydroxy-6-methyltetrahydro-2H-pyran-2-yl)oxy)-3-(1-(dimethylglycyl)piperidin-4-yl)-8-methoxy-4,6,8,10,12,12-hexamethyl-1-oxa-4-azacyclotridecane-11,13-dione] | > 32 | 4 to 32 (≈ 5.98 to 47.8 µM) | > 32 | < 4 | > 32 |
| CO[C@]1(C)C[C@@H](C)CN(C)[C@H](C2CC3CCC(C2)N3CC(C)C)COC(=O)C(C)(C)C(=O)[C@H](C)[C@H]1O[C@@H]1O[C@H](C)C[C@H](N(C)C)[C@H]1O (stereo partly drawn) [Compound 87, (3R,6R,8R,9R,10R)-9-(((2S,3R,4S,6R)-4-(dimethylamino)-3-hydroxy-6-methyltetrahydro-2H-pyran-2-yl)oxy)-3-(8-isobutyl-8-azabicyclo[3.2.1]octan-3-yl)-8-methoxy-4,6,8,10,12,12-hexamethyl-1-oxa-4-azacyclotridecane-11,13-dione] | > 32 | 4 to 32 (≈ 6.01 to 48.1 µM) | < 4 | < 4 | > 32 |
| CO[C@]1(C)C[C@@H](C)CN(C)[C@H](C2CCCCC2)COC(=O)C(C)(C)C(=O)[C@H](C)[C@H]1O[C@@H]1O[C@H](C)C[C@H](N(C)C)[C@H]1O [Compound 88, (3R,6R,8R,9R,10R)-3-cyclohexyl-9-(((2S,3R,4S,6R)-4-(dimethylamino)-3-hydroxy-6-methyltetrahydro-2H-pyran-2-yl)oxy)-8-methoxy-4,6,8,10,12,12-hexamethyl-1-oxa-4-azacyclotridecane-11,13-dione] | > 32 | > 32 | > 32 | > 32 | > 32 |
| CO[C@]1(C)C[C@@H](C)CN(C)[C@@H]([C@H]2CCCN(C)C2)COC(=O)C(C)(C)C(=O)[C@H](C)[C@H]1O[C@@H]1O[C@H](C)C[C@H](N(C)C)[C@H]1O [Compound 89, (3S,6R,8R,9R,10R)-9-(((2S,3R,4S,6R)-4-(dimethylamino)-3-hydroxy-6-methyltetrahydro-2H-pyran-2-yl)oxy)-8-methoxy-4,6,8,10,12,12-hexamethyl-3-((S)-1-methylpiperidin-3-yl)-1-oxa-4-azacyclotridecane-11,13-dione] | > 32 | > 32 | > 32 | 4 to 32 (≈ 6.69 to 53.5 µM) | > 32 |
| CO[C@]1(C)C[C@@H](C)CN(C)[C@H]([C@@H]2CCCN(C(C)C)C2)COC(=O)C(C)(C)C(=O)[C@H](C)[C@H]1O[C@@H]1O[C@H](C)C[C@H](N(C)C)[C@H]1O [Compound 90, (3R,6R,8R,9R,10R)-9-(((2S,3R,4S,6R)-4-(dimethylamino)-3-hydroxy-6-methyltetrahydro-2H-pyran-2-yl)oxy)-3-((R)-1-isopropylpiperidin-3-yl)-8-methoxy-4,6,8,10,12,12-hexamethyl-1-oxa-4-azacyclotridecane-11,13-dione] | > 32 | 4 to 32 (≈ 6.39 to 51.1 µM) | > 32 | 4 to 32 (≈ 6.39 to 51.1 µM) | > 32 |
| CO[C@]1(C)C[C@@H](C)CN(C)[C@H](C2CN(CC3COC3)C2)COC(=O)C(C)(C)C(=O)[C@H](C)[C@H]1O[C@@H]1O[C@H](C)C[C@H](N(C)C)[C@H]1O [Compound 91, (3R,6R,8R,9R,10R)-9-(((2S,3R,4S,6R)-4-(dimethylamino)-3-hydroxy-6-methyltetrahydro-2H-pyran-2-yl)oxy)-8-methoxy-4,6,8,10,12,12-hexamethyl-3-(1-(oxetan-3-ylmethyl)azetidin-3-yl)-1-oxa-4-azacyclotridecane-11,13-dione] | > 32 | 4 to 32 (≈ 6.39 to 51.1 µM) | > 32 | < 4 | > 32 |
| CO[C@]1(C)C[C@@H](C)CN(C)[C@H](C2CCN(CC(F)(F)F)CC2)COC(=O)C(C)(C)C(=O)[C@H](C)[C@H]1O[C@@H]1O[C@H](C)C[C@H](N(C)C)[C@H]1O [Compound 92, (3R,6R,8R,9R,10R)-9-(((2S,3R,4S,6R)-4-(dimethylamino)-3-hydroxy-6-methyltetrahydro-2H-pyran-2-yl)oxy)-8-methoxy-4,6,8,10,12,12-hexamethyl-3-(1-(2,2,2-trifluoroethyl)piperidin-4-yl)-1-oxa-4-azacyclotridecane-11,13-dione] | > 32 | > 32 | 4 to 32 (≈ 6.01 to 48.1 µM) | 4 to 32 (≈ 6.01 to 48.1 µM) | > 32 |
